Laboratory results from patent publication US10822312B2, “Substituted quinazoline compounds and methods of use” (ARAXES PHARMA LLC, priority 2016, dated 2020).
Blank lines part the entries; values can stand above or below the compound they belong to.

Tests used:
[1] = target: T1, KRAS WT (GDP-loaded, hexahistidine tagged, truncated 1-169) (Homo sapiens, UniProt P01116); experiment: SOS-mediated nucleotide exchange assay, KRAS WT; assay type: biochemical; settings: SOS(cat)-mediated Bodipy-GDP exchange
T1 construct: truncated (1-169) KRAS proteins; hexahistidine
Experimental: (§1) GDP-loaded, hexahistidine tagged, truncated (1-169) KRAS proteins (WT or G12D) were used (stored in protein dilution buffer [20 mM HEPES pH=7.5, 150 NaCl, 1 mM MgCl2]). 1 μL of the respective KRAS protein (1.88 μM stock, 0.125 μM final) was mixed with 10 μL of assay buffer (30 mM TRIS pH=7.5, 1.5 mM MgCl2, 0.135 μM Bodipy-GDP [20 mM TRIS pH=7.5, 1.0 mM MgCl2, 0.09 μM final]) and 1 μL of 15× compound stock in 30% DMSO (final DMSO conc. 2%). After 30 min incubation at room temperature, the exchange reaction was initiated by addition of 3 μL SOS(cat) (catalytic domain, 2.5 μM stock in protein dilution buffer, 0.5 μM final). The assay was carried out in black low-volume plates (Corning #4514) and fluorescence was monitored (485 nm excitation and 510 nm emission) for 45 minutes after initiation at 60-s intervals.
(§2) For data analysis, relative fluorescence values for each sample after subtracting the background values (before SOS addition) were plotted in graph pad. Rates were then calculated by fitting the data by non-linear regression (one phase association curve). Typically, 6 dilutions per compound (3-fold series, starting at 60 μM final) were measured. Calculated rates vs compound concentrations were fitted by non-linear regression (log(inhibitor) vs response-Variable slope (four parameters) fit) to determine IC50 values.
(§3) Compound numbers correspond to the numbers and structures provided in Tables 1, 2 and 3 and Examples 1-4.

[2] = target: T2, KRAS G12D (GDP-loaded, hexahistidine tagged, truncated 1-169) (Homo sapiens, UniProt P01116, G12D); experiment: SOS-mediated nucleotide exchange assay, KRAS G12D; assay type: biochemical; settings: SOS(cat)-mediated Bodipy-GDP exchange
T2 construct: truncated (1-169) KRAS proteins; hexahistidine
Experimental: as §1, §2, §3

T1 sequence (P01116 1-169 isoform P01116-2): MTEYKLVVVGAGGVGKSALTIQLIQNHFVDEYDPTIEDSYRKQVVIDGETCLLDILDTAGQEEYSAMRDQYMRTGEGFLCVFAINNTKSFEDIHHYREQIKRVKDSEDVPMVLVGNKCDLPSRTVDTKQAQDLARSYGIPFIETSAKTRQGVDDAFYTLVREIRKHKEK
T2 sequence (P01116 1-169 isoform P01116-2 G12D): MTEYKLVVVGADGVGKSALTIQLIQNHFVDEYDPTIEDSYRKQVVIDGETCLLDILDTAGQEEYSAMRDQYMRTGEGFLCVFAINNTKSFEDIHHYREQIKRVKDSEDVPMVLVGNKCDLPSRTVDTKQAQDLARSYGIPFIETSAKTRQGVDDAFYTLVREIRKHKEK

Compound: CN(C)C1CN(c2nc(N3CCNCC3)c3cc(Cl)c(-c4cc(O)cc5ccccc45)c(F)c3n2)C1 (atropisomer, axis not shown) [Compound 339]
IC50 [1]: > 15 µM

Compound: CN(C)CCCOc1nc(N2CCN[C@@H](C#N)C2)c2cc(Cl)c(-c3cc(O)cc4ccccc34)c(F)c2n1 [Compound 166]
IC50 [1]: > 15 µM | IC50 [2]: > 15 µM

Compound: C[C@@H]1CN(c2nc(N3CC(N(C)C)C3)nc3c(F)c(-c4cc(O)cc5ccccc45)c(Cl)cc23)[C@@H](C)CN1 (atropisomer, axis not shown) [Compound 330]
IC50 [1]: > 15 µM | IC50 [2]: > 15 µM

Compound: CN(CCCCCN=[N+]=[N-])CCCOc1nc(N2CCNCC2)c2cc(Cl)c(-c3cc(O)cc4ccccc34)c(F)c2n1 [Compound 168]
IC50 [2]: > 15 µM

Compound: O=S(=O)(F)CCOc1nc(N2CCOCC2)c2cc(Cl)c(-c3cc(O)cc4ccccc34)c(F)c2n1 [Compound 176]
IC50 [1]: > 15 µM | IC50 [2]: > 15 µM

Compound: CN(C)C1CN(c2nc(N3CCNCC3)c3cc(Cl)c(-c4cc(O)cc5ccccc45)c(F)c3n2)C1 [Compound 334, 4-(6-Chloro-2-(3-(dimethylamino)azetidin-1-yl)-8-fluoro-4-(piperazin-1-yl)quinazolin-7-yl)naphthalen-2-ol]
IC50 [2]: < 15 µM

Compound: CN(C(=O)CO)C1CN(c2nc(N3CCNCC3)c3cc(Cl)c(-c4cc(O)cc5ccccc45)c(F)c3n2)C1 [Compound 346]
IC50 [1]: > 15 µM | IC50 [2]: > 15 µM

Compound: CN(CCOc1nc(N2CCOCC2)c2cc(Cl)c(-c3cc(O)cc4ccccc34)c(F)c2n1)C(=O)CCl [Compound 175]
IC50 [1]: > 15 µM | IC50 [2]: > 15 µM

Compound: CN(C(=O)CN)C1CN(c2nc(N3CCNCC3)c3cc(Cl)c(-c4cc(O)cc5ccccc45)c(F)c3n2)C1 [Compound 344]
IC50 [1]: > 15 µM | IC50 [2]: < 15 µM

Compound: CC(=O)N1CCN(c2nc(OCCCN(C)C)nc3c(F)c(-c4cc(O)cc5ccccc45)c(C(F)(F)F)cc23)CC1 (atropisomer, axis not shown) [Compound 158]
IC50 [1]: < 15 µM | IC50 [2]: > 15 µM

Compound: CN(C)CCCOc1nc(N2CCOCC2)c2cc(C(F)(F)F)c(-c3cc(O)cc4ccccc34)c(F)c2n1 (atropisomer, axis not shown) [Compound 162]
IC50 [1]: < 15 µM | IC50 [2]: > 15 µM

Compound: CN(C(=O)CCl)C1CN(c2nc(N3CCOCC3)c3cc(Cl)c(-c4cc(O)cc5ccccc45)c(F)c3n2)C1 [Compound 350]
IC50 [1]: > 15 µM | IC50 [2]: > 15 µM

Compound: C[C@@H]1CN(c2nc(OCCCN(C)C)nc3c(F)c(-c4cc(O)cc5ccccc45)c(Cl)cc23)[C@@H](C)CN1 (atropisomer, axis not shown) [Compound 97]
IC50 [1]: > 15 µM | IC50 [2]: > 15 µM

Compound: CN(CCCCCN=[N+]=[N-])CCCOc1nc(N2CCOCC2)c2cc(Cl)c(-c3cc(O)cc4ccccc34)c(F)c2n1 [Compound 167]
IC50 [2]: > 15 µM

Compound: CN(C(=O)CCl)C1CN(c2nc(N3CCNCC3)c3cc(Cl)c(-c4cc(O)cc5ccccc45)c(F)c3n2)C1 [Compound 351]
IC50 [1]: > 15 µM | IC50 [2]: > 15 µM

Compound: CC(=O)NCCCCCN(C)CCCOc1nc(N2CCOCC2)c2cc(Cl)c(-c3cc(O)cc4ccccc34)c(F)c2n1 [Compound 171]
IC50 [1]: > 15 µM | IC50 [2]: > 15 µM

More lines, now with the values ahead:

IC50 [1]: < 15 µM | IC50 [2]: > 15 µM
Compound: CN(C)CCCOc1nc(N2CCNC(CC#N)C2)c2cc(Cl)c(-c3cc(O)cc4ccccc34)c(F)c2n1 (centres unmarked) [Compound 170]

IC50 [1]: > 15 µM | IC50 [2]: < 15 µM
Compound: CC(=O)NCCCCCN(C)CCCOc1nc(N2CCNCC2)c2cc(Cl)c(-c3cc(O)cc4ccccc34)c(F)c2n1 [Compound 172]

IC50 [1]: > 15 µM | IC50 [2]: < 15 µM
Compound: CN(C)CCCOc1nc(N2CCN[C@@H](CO)C2)c2cc(Cl)c(-c3cc(O)cc4ccccc34)c(F)c2n1 [Compound 155]

IC50 [2]: < 15 µM
Compound: CN(C)CCCOc1nc(N2CCNCC2)c2cc(C(F)(F)F)c(-c3cc(O)cc4ccccc34)c(F)c2n1 (atropisomer, axis not shown) [Compound 156]

IC50 [2]: < 15 µM
Compound: CN(C)CCCOc1nc(N2CCNC(CC(N)=O)C2)c2cc(Cl)c(-c3cc(O)cc4ccccc34)c(F)c2n1 (centres unmarked) [Compound 169]

IC50 [1]: > 15 µM | IC50 [2]: > 15 µM
Compound: CN(C)CC(O)COc1nc(N2CCNCC2)c2cc(Cl)c(-c3cc(O)cc4ccccc34)c(F)c2n1 (centres unmarked) [Compound 120]

IC50 [1]: > 15 µM | IC50 [2]: > 15 µM
Compound: CN(C)CCCOc1nc(N2CCC(C#N)CC2)c2cc(Cl)c(-c3cc(O)cc4ccccc34)c(F)c2n1 [Compound 165]

IC50 [1]: > 15 µM | IC50 [2]: > 15 µM
Compound: Cc1ccc2[nH]ncc2c1-c1c(Cl)cc2c(N3CCNCC3)nc(OCCCN(C)C)nc2c1F [Compound 108]

IC50 [1]: < 15 µM | IC50 [2]: > 15 µM
Compound: CC(=O)N1CCN(c2nc(OCCCN(C)C)nc3c(F)c(-c4cc(O)cc5ccccc45)c(Cl)cc23)CC1 (single isomer, unassigned) [Compound 18, 1-(4-(6-chloro-2-(3-(dimethylamino)propoxy)-8-fluoro-7-(3-hydroxynaphthalen-1-yl)quinazolin-4-yl)piperazin-1-yl)ethanone]

IC50 [1]: > 15 µM | IC50 [2]: < 15 µM
Compound: CN(C)CCCOc1nc(N2CCNCC2)c2cc(Cl)c(-c3cc(O)cc4ccccc34)c(F)c2n1 (single isomer, unassigned) [Compound 22, 4-(6-chloro-2-(3-(dimethylamino)propoxy)-8-fluoro-4-(piperazin-1-yl)quinazolin-7-yl)naphthalen-2-ol]

IC50 [1]: > 15 µM | IC50 [2]: > 15 µM
Compound: Cc1cc(N)c2[nH]ncc2c1-c1c(Cl)cc2c(N3CCNCC3)nc(OCCCN(C)C)nc2c1F [Compound 173]

IC50 [1]: > 15 µM
Compound: CN(C)CCCOc1nc(N2CCNCC2)c2cc(C(F)(F)F)c(-c3cc(O)cc4ccccc34)c(F)c2n1 [Compound 147]

IC50 [1]: > 15 µM | IC50 [2]: > 15 µM
Compound: CN(C)CCCOc1nc(N2CCN[C@@H](C(N)=O)C2)c2cc(Cl)c(-c3cc(O)cc4ccccc34)c(F)c2n1 [Compound 164]

IC50 [2]: > 15 µM
Compound: Cc1cc(N)c2[nH]ncc2c1-c1c(Cl)cc2c(N3CCOCC3)nc(OCCCN(C)C)nc2c1F [Compound 174]

IC50 [1]: > 15 µM | IC50 [2]: > 15 µM
Compound: CN(C)CCCOc1nc(N2CCNCC2)c2cc(Cl)c(-c3c(O)cccc3F)c(F)c2n1 [Compound 112]

IC50 [1]: < 15 µM | IC50 [2]: > 15 µM
Compound: CN(C)CCCOc1nc(N2CCOCC2)c2cc(Cl)c(-c3cc(O)cc4ccccc34)c(F)c2n1 (atropisomer, axis not shown) [Compound 151]
